Source: patent publication US20110251135A1, “INHIBITORS OF PERITONEAL SEEDING OF CANCER CELLS” (University of Utah Research Foundation, priority 2008, published 2011)

Assays:
[1] = system: BxPc-3 pancreatic cancer cells; assay: Athymic mouse model of peritoneal carcinomatosis (IP cancer cells, bioluminescent imaging, 9 days); assay type: in vivo; details: BxPc-3 IP; BAY 11-7085 5 mg/kg IP 24 h before, then every 3 days for 9 days
Description: (§1) Twenty-four hours later, […] Su.86 or BxPC-3 pancreatic cancer cells, that were stably transfected with a firefly luciferase construct, were delivered IP. […] At the end of treatment, the mice received luciferin IP and sacrificed. The abdominal cavities were exposed and the mice placed immediately in a bioluminescent imager and photographed. The individual intraabdominal peritoneal tumors were counted. The subset of tumor implants limited to the liver surface was determined as well. […] The proportion of mice with peritoneal and/or hepatic tumor implants were compared using a test of proportions (*p<0.05).

[2] = system: Su.86 pancreatic cancer cells; assay: as above; assay type: in vivo; details: Su.86 IP; BAY 11-7085 5 mg/kg IP 24 h before, then every 3 days for 9 days
Description: as §1

[3] = system: DLD-1 cells; assay: Soft agar colony formation assay; assay type: cell-based, human; details: 10 μM for 6 days
Description: (§2) DLD-1, HCT-116, and HT-29 cells were cultured for 6 days in soft agar in the presence of DMSO (control), 10 μM BAY 11-7082, or 10 μM BAY 11-7085. The data points represent the means of colony counts per field (20×) performed in 5 different regions of the culture dishes. The data shown represent a typical result of two separate experiments. FIG. 2B and FIG. 2C are graphs that show athymic mice received subcutaneous injections of HT-29 (FIG. B) or HCT-116 (FIG. C) cells, followed by […] of BAY 11-7085 (dark bars) or DMSO (white bars) intraperitoneally twice weekly. The bars represent the 25-75% ranges of the tumor volumes and the horizontal lines in the bars are the medians. Using the Kruskal-Wallace statistical test to compare the median tumor volumes between BAY 11-7085 and DMSO yielded a p-value of 0.005 for HT-29 cells but >0.05 for HCT-116 cells.
(§3) Anchorage-independent cell growth is a hallmark of cancer cells and is a good correlation to tumorigencity in vivo. Therefore, the effects of BAY 11-7082 and BAY 11-7085 were examined on colon cancer cell growth using the soft agar colony formation assay.

[4] = system: HCT-116 cells; assay: Soft agar colony formation assay; assay type: cell-based, human; details: 10 μM for 6 days
Description: as §2, §3

[5] = system: HT-29 cells; assay: Soft agar colony formation assay; assay type: cell-based, human; details: 10 μM for 6 days
Description: as §2, §3

SMILES: CC(C)(C)c1ccc(S(=O)(=O)/C=C/C#N)cc1 [BAY 11-7085, (2E)-3-[4-(tertiarybutylphenyl)sulfonyl]-2-propenenitrile]
- % with Liver Implants [1]: 29%
- % with Peritoneal Implants [1]: 71%
- % with Liver Implants [2]: 0%
- % with Peritoneal Implants [2]: 33%
- anchorage-independent proliferation [3]: significantly inhibited
- anchorage-independent proliferation [4]: but not HCT-116
- anchorage-independent proliferation [5]: significantly inhibited
